Reference: patent publication US8324189B2, “Use of zolendronate for the manufacture of a medicament for the treatment of bone metabolism diseases” (Novartis Pharmaceuticals Corporation, priority 2001, dated 2012)

Columns and labels:
[1] = system: prostate cancer cell lines; details: in vitro treatment; cited from earlier work
[2] = renal adverse events (increase in serum creatinine over baseline) in clinical studies; assay type: in vivo, human
[3] = controlled trials in cancer patients: percentage of patients showing a skeletal related adverse event; assay type: in vivo, human
Method: The 4 mg dose of zoledronic acid has been determined to be clinically effective in several controlled trials in cancer patients, with placebo or the bisphosphonate pamidronate as comparator.

[4] = renal adverse events (increase in serum creatinine over baseline) in clinical studies; assay type: in vivo, human; details: for incidence of renal adverse events / incidence of renal adverse events (patients with event / patients): 4 mg
Method: The dose of 4 mg zoledronic acid infused over 15 minutes offers a safety advantage in terms of renal tolerability over the shorter infusion time of 5 minutes. The lower incidence of renal adverse events with zoledronic acid infused over 15 minutes versus 5 minutes is summarized below. Renal adverse events are defined as increases in a patient's serum creatinine over baseline, by ≦0.5 mg/dL if baseline <1.4 mg/dL, by ≦1 mg/dL if baseline […], by ≦2-fold irrespective of baseline value.

[5] = pharmacokinetic study of zoledronic acid in cancer patients with bone metastases (plasma concentration, urinary excretion); assay type: in vivo, human; details: for Cmax: human, plasma, intravenous
Method: FIG. 1. Plasma concentrations in patients after 4 mg zoledronic acid infused over 5 minutes and 15 minutes (mean data for n=5 patients in 4 mg/5 min group, n=7 patients in 4 mg/15 min group, study 503 [2]
• 1. The volume of 100 ml containing 4 mg zoledronic acid is infused over 15 minutes as an intravenous drip, which allows the drug to be administered at a uniform and precise rate. […] The pharmacokinetic parameters derived from the individual patients' plasma concentration versus time curves, and urinary excretion of drug are tabulated below.

[6] = system: subcutaneous prostate cancer cell line tumours; details: cited from earlier work
[7] = system: osteoclastic bone resorption; details: animal models, cited from earlier work
[8] = Study 10, breast cancer patients
[9] = Study 10, multiple myeloma patients
[10] = Study 10, breast cancer and multiple myeloma patients, 5 minutes infusion
[11] = Study 10, breast cancer and multiple myeloma patients, 15 minutes infusion
[12] = Study 11, lung cancer patients, 5 minutes infusion
[13] = Study 11, lung cancer patients, 15 minutes infusion
[14] = Study 39, prostate cancer patients, 5 minutes infusion
[15] = Study 39, prostate cancer patients, 15 minutes infusion
[16] = 4 mg infused over 5 minutes, n = 5
[17] = 4 mg infused over 15 minutes, n = 7

## O=P(O)(O)C(O)(Cn1ccnc1)P(=O)(O)O [zoledronic acid, 1-hydroxy-2-(imidazol-1-yl)ethane-1,1-diphosphonic acid]
[1]
  growth of prostate cancer cell lines: significantly reduced the growth of the cell lines
[2]; 4 mg infused over 15 minutes
  renal safety versus higher doses of zoledronic acid, 8 mg and 16 mg: improved renal safety
[3]; 4 mg infused over approximately 15 minutes
  efficacy versus Aredia (disodium pamidronate) 90 mg dosed over 2-4 hours: comparable efficacy
[3]; [8]
  Percentage of patients showing a skeletal related adverse event: 42%
[3]; [9]
  Percentage of patients showing a skeletal related adverse event: 47%
[3]; Study 11, hypercalcemic lung cancer patients
  Percentage of patients showing a skeletal related adverse event: 42%
[3]; Study 11, hypercalcemic patients with other solid tumors
  Percentage of patients showing a skeletal related adverse event: 33%
[3]; Study 39, prostate cancer patients
  Percentage of patients showing a skeletal related adverse event: 33%
[3]; double blind, placebo-controlled clinical study, prostate cancer patients
  efficacy over placebo in the treatment of bone metastases: statistically significant efficacy benefit over placebo
[4]; 4 mg/15 minutes
  renal safety versus 4 mg/5 minutes and higher zoledronic acid dose/15 minutes: improved renal safety
[4]; [10]
  incidence of renal adverse events: 13.2%
  incidence of renal adverse events (patients with event / patients): 36/272 patients
[4]; [11]
  incidence of renal adverse events: 8.8%
  incidence of renal adverse events (patients with event / patients): 24/272 patients
[4]; Study 10, breast cancer and multiple myeloma patients, 15 minutes infusion, listed as Zoledronic acid
  incidence of renal adverse events: 8.8%
[4]; [12]
  incidence of renal adverse events: 16.4%
  incidence of renal adverse events (patients with event / patients): 10/61 patients
[4]; [13]
  incidence of renal adverse events: 10.9%
  incidence of renal adverse events (patients with event / patients): 18/165 patients
[4]; [14]
  incidence of renal adverse events: 19.8%
  incidence of renal adverse events (patients with event / patients): 22/111 patients
[4]; [15]
  incidence of renal adverse events: 15.2%
  incidence of renal adverse events (patients with event / patients): 14/78 patients
[5]; 4 mg
  Differences in AUC, 15 minutes versus 5 minutes infusion: not significant
  Differences in Ae, 15 minutes versus 5 minutes infusion: not significant
  Differences in mean Cmax, 15 minutes versus 5 minutes infusion: statistically significant
[5]; [16]
  AUC 0-24 h: 378 ± 116 ngxh/ml
  Ae 0-24 h (amount of drug excreted in urine): 38.7 ± 6.34 % of dose
[5]; [17]
  AUC 0-24 h: 420 ± 218 ngxh/ml
  Ae 0-24 h (amount of drug excreted in urine): 37.4 ± 17.0 % of dose
[5]; 4 mg, 4 mg infused over 5 minutes, n = 5, cancer patients with bone metastases
  Cmax: 403 ± 118 ng/mL
[5]; 4 mg, 4 mg infused over 15 minutes, n = 7, cancer patients with bone metastases
  Cmax: 264 ± 86 ng/mL
[6]
  tumour volume: no significant decrease in tumour volume
[7]; doses inhibiting bone resorption
  impact on renal function: no appreciable impact on renal function
[7]; doses that do not affect bone formation and mineralization
  inhibition of osteoclastic bone resorption versus earlier generation bisphosphonates: inhibits osteoclastic bone resorption more effectively than earlier generation bisphosphonates

## NCCC(O)(P(=O)(O)O)P(=O)(O)O [pamidronate, disodium pamidronate]
[2]; 90 mg infused over 2 hours
  renal tolerability (incidence of renal adverse events): 8.2%
[3]; [8]
  Percentage of patients showing a skeletal related adverse event: 47%
[3]; [9]
  Percentage of patients showing a skeletal related adverse event: 49%
